Assay results published in patent US20250059139A1, “COMPOUNDS FOR TREATMENT OF CANCER” (THE JOHNS HOPKINS UNIVERSITY, priority 2021, published 2025).
Where two headings read alike, the source gives them in different places.

Experiments:
[1] = Pharmacokinetic (PK) analysis after oral dosing in mice; assay type: in vivo, mouse; details: for half-life: oral, 10 mg/kg
Description: (§1) Oral Drug treatment. TasQ at the indicated dose was initially dissolved with equal molar 1 N sodium hydroxide. This solution was diluted with sterile water and the mixture stirred for 1 hr. The pH was then adjusted with 1 N HCl to 8.9 and 200 μL given daily via oral gavage.
Pharmacokinetic (PK) Analysis. Plasma or serum samples; 50 uL of plasma or serum was transferred into a 1.7 mL microfuge tube. Three volumes of acetonitrile containing 0.1% TFA was added and the sample was vortexed for 1 to 3 minute, then centrifuged at 13,000 RPM in a microcentrifuge. 120 uL of the resulting supernatant was loaded into a sample loop with a cut off volume of 100 uL and injected into the HPLC onto a C18 reverse phase column. The HPLC system was a WATERS 600 series quaternary system with a 2487 dual wavelength detector set at 215 nm and 332 nm. Mobile phase A was 5% Acetonitrile/water, 0.1% TFA Mobile phase B was 95% Acetonitrile/water, 0.1% TFA 1.5 mL/min 20% B to 98% B in 10 minutes, hold for 5 minutes return to initial condition for 4 minutes/Retention time for tasquinimod was 11 min, RT for ESATA20 was 13.3 min with no observable interference from endogenous mouse peaks.

[2] = target: T1, nuclear MEF2/HDAC4/NCoR1 formation in CWR-22Rv1 cells (Homo sapiens, UniProt P56524); experiment: Nuclear NCoR1 immunoprecipitated with MEF-2 antibody in CWR-22Rv1 cells under hypoxia; assay type: cell-based; details: 1% O2, read-out: IC50 for inhibiting hypoxia-induced nuclear MEF2/HDAC4/NCoR1 formation (MEF-2 and NCoR1 IP)
T1 construct: endogenous in cells; host or cells: CWR-22Rv1 cells, nuclear extracts, 1% O2
Description: While HIF-1α is required for the upregulation of hypoxia survival genes, it is not required for the hypoxia-induced widespread transcriptional repression, which is also needed for enhanced survival in the compromised TME (Denko et al. Nat Rev Cancer 8, 705-713 (2008)). MEF-2 is also a HDAC4 client (McKinsey et al. Trends Biochem Sci 27, 40-47 (2002)). MEF-2 dimers bind to target gene promoters, forming a hydrophobic groove composed of AA 1-78 of each monomer to which HDAC4 binds via its amphipathic helix at AA 168-184 (Han et al. J Mol Biol 345, 91-102 (2005)). When MEF-2 binds, HDAC4 forms a NCoR1/HDAC3 complex, which deacetylates MEF2 and histones within its proximity; thereby, repressing expression of its target genes (McKinsey 2002). When CWR-22Rv1 cells are switched from a 21% to a 1% 02 environment in vitro, there is a 3-fold increase in NCoR1 immunoprecipitated with MEF-2 from nuclear extracts (FIG. 36). Co-treatment with TasQ inhibits this hypoxia-induced increase in nuclear MEF2/HDAC4/NCoR1 formation with an IC50 of 5 μM (FIG. 36). These in vitro results are consistent with gene expression analysis of CWR22-RH PDX tissue from castrate hosts in vivo, which document that daily oral TasQ (10 mg/kg/d) inhibits the binding of NCoR1, and thus HDAC3 to the MEF-2/HDAC4 complex, relieving repression of MEF-2 target genes needed for survival under hypoxic conditions (Table 1B).

[3] = tested on: CWR22-RH human prostate cancer PDXs; experiment: In vivo growth of CWR22-RH xenografts in castrate NSG male mice; details: for CWR22-RH Tumor Growth (% inhibition +/− SD): castrate mice treated orally over a 3 week period, n = 5/group
Description: Prostate Cancer Models. The source, history, and characteristics of the human prostate cancer cell lines and PDXs used, as well as cell culture conditions for their in vitro maintenance and the in vivo protocol for xenograft growth in triple immune-deficient NSG (i.e. NOD.Cg-PrkdcScidIl2rgtmlWji/Szj), adult (>8 week old) male mice obtained from the Sidney Kimmel Comprehensive Cancer Center (SKCCC) Animal Core Facility are described previously (Isaacs 2013; Brennen et al. JCI Insight. 2021, 6(8):e146827; Zhu et al. Oncogene 2020, 39(45): 6935-6949). Similar information concerning the TRAMP-C2 and B6CaP mouse prostate cancers originating in a C57BL/6J male mice are described previously (Foster et al. Cancer Res. 1997, 57: 3325-3330; Simons et al. Oncotarget. 2019, 10(64):6845-6854). In vitro growth curves were determined as described (Isaacs 2013). In vivo growth response to oral daily TasQ (10 mg/kg/d) of TRAMP-C2 mouse prostate cancers was evaluated in C57BL/6J syngeneic wild type vs. NOX-2 vs. iNOS null male mice obtained from Jackson Laboratory (Bar Harbor, ME). Growth response to oral daily TasQ (10 mg/kg/d) of TRAMP-C2 and B6CaP mouse prostate cancers was also evaluated in S100A9 null C57BL′6J male mice obtained from Dmitry Gabrilovich (Wistar Institute). All lines were mycoplasma negative using the MycoSensor PCR Assay kit (Agilent Technologies) and genetically authenticated within the last 6 months using short tandem repeat profiling conducted by the Johns Hopkins Genetic Resource Core Facility. In vitro growth curves were determined as described (Isaacs 2013). Growth response to daily oral TasQ vs. ESATA-20 (both at 10 mg/kg/d) of Myc-CaP-CR mouse prostate cancer was evaluated in syngeneic FVB/NJ castrate male mice from Jackson Laboratory. Animal studies were conducted according to animal protocols approved by Johns Hopkins Animal Care and Use Committee. Tumor volume measurements were as described previously (id.). In vivo experiments were repeated multiple independent times for each model used with 3-5 mice per treatment grouping.
as §1
Due to these combined effects, maximal growth inhibition of CWR22-RH, a castration-resistant prostate cancer patient-derived xenograft (PDX), is obtained as maintenance therapy with oral daily dosing of ≥5 mg/kg/d (FIG. 1). […] Previous studies documented that in vitro treatment of human prostate cancer cells (LNCaP) with 1-10 μM TasQ rapidly (i.e., ≤1 day) induces the transcription of a series of AHR target genes (e.g., Cyp1a1, Cyp1b1, AHRR, TPARP, GDF15) (Olsson 2010). […]

liver Cyp1a1 = experiment: Mouse liver Cyp1a1 induction after oral dosing (Q-PCR); assay type: in vivo
Description: Real-time quantitative PCR (Q-PCR) analysis. […] ID NO: 2) and […] ID NO: 3). […] ID NO: 4) and […] ID NO: 5).

human AHR = target: T2, human AHR (Homo sapiens, UniProt P35869); experiment: Photo-affinity ligand (PAL) competitive binding to human AHR in liver cytosol of hAHR transgenic mice
T2 construct: from tissue; host or cells: liver cytosol of liver-specific hAHR transgenic mice
Description: AHR Binding Assay. Photo-affinity competitive ligand binding to the human AHR was performed as described previously (Brennen 2021).
This raises the issue of whether the induction of AHR target genes is a result of TasQ or one of its metabolites binds to AHR as a ligand. To test whether TasQ is an AHR ligand, liver cytosol lacking microsomal CYPs was isolated from liver-specific human AHR (hAHR)-expressing transgenic mice.

T1 sequence (P56524 whole entry): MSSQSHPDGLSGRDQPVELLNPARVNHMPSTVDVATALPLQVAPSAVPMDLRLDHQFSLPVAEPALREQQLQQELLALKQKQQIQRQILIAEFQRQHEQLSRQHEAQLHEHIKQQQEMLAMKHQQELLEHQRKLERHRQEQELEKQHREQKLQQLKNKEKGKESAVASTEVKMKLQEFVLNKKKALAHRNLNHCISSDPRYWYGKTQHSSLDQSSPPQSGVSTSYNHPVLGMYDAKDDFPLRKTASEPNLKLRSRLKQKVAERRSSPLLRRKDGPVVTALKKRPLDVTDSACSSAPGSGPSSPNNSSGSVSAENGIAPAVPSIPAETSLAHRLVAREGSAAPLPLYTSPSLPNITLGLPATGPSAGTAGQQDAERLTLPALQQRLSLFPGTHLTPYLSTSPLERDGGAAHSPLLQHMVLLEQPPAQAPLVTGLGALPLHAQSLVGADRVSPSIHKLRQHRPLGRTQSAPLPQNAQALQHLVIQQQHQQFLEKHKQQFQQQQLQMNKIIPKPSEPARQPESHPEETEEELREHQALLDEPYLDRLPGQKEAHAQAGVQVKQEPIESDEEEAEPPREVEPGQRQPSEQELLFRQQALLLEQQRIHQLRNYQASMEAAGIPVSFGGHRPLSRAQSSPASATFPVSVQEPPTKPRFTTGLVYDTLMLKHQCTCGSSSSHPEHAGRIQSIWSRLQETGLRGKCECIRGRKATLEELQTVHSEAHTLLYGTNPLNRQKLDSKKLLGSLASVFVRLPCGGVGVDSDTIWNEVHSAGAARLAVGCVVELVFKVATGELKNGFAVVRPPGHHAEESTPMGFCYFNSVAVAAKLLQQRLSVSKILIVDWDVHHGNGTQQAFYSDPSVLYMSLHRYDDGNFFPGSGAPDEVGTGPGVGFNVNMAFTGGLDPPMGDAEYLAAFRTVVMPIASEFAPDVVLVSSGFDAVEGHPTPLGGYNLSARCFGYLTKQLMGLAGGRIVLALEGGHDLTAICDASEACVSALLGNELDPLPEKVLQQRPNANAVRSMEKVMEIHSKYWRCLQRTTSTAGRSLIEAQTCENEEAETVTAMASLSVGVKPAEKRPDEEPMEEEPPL
T2 sequence (P35869 11-848): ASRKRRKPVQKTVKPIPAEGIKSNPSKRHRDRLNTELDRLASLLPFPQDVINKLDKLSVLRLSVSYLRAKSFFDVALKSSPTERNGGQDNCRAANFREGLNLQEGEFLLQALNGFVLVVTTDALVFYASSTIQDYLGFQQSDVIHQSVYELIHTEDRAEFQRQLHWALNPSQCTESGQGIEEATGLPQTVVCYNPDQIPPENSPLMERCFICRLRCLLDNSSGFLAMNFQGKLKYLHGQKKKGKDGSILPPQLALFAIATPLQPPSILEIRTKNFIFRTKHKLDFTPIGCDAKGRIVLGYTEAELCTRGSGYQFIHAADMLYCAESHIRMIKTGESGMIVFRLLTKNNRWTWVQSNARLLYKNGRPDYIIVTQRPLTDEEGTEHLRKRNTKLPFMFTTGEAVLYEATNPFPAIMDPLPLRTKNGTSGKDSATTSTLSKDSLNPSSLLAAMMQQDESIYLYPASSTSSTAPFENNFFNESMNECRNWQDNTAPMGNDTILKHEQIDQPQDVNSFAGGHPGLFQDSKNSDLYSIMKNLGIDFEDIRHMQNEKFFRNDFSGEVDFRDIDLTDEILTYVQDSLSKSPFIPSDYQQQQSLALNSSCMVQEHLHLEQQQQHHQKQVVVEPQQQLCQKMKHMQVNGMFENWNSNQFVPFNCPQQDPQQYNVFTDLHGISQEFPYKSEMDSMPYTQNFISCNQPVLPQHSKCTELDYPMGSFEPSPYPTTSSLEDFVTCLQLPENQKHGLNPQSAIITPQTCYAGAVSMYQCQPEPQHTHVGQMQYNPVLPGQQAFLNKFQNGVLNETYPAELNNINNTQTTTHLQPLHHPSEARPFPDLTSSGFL

SMILES | fold lower bioavailability than TasQ ([1]; 10 mg/kg oral) [fold] | drug bound to serum proteins ([1]; mouse, in vivo) [%] | half-life ([1]; mouse, serum, read-out: alpha half-life for tissue distribution (converted)) [h] | half-life ([1]; mouse, serum, read-out: beta half-life for serum elimination) [h] | Cmax ([1]; mouse, serum, 10 mg/kg oral dose) [µM] | IC50 [2] [nM] | anti-cancer efficacy compared with TasQ ([3]; 10 mg/kg/d) | CWR22-RH Tumor Growth (% inhibition +/− SD) ([3]; 10 mg/kg/d) | fold more potent than TasQ in inhibiting CWR22-RH xenograft growth ([3]; on a molar basis) | induction of liver Cyp1a1 (liver Cyp1a1; given orally at 30 mg/kg/d) | fold lower binding affinity than TasQ (human AHR; competitive PAL AHR binding assay and cell-based AHR-promoter assay) [fold] | Cmax ([1]; 10 mg/kg oral dose, read-out: serum Cmax) [µM] | serum drug level maintained ([1]; 4-week old FVB male mice, oral 10 mg/kg/d over 14 days) [µM] | Cmax ([1]; oral 5 mg/kg/d, 1 hr post-dosing, read-out: serum Cmax) [µM] | plasma concentration required to maximally inhibit in vivo prostate cancer xenograft growth ([3]; combined xenograft and PK results) [µM] | oral daily dose giving maximal growth inhibition ([3]; maintenance therapy, CWR22-RH PDX) [mg/kg/day] | induction of liver Cyp1a1 (liver Cyp1a1; daily oral 10 mg/kg, alone and in combination with B(a)P) [fold] | EC50 (human AHR; 20 min competitive binding, liver cytosol of hAHR transgenic mice, read-out: EC50 as competitive ligand for human AHR (PAL assay)) [nM]
COc1cccc2c1c(O)c(C(=O)N(c1ccc(C(F)(F)F)cc1)C1CCCCC1)c(=O)n2C [ESATA-20] | 5.5 | > 98 | 3 | 10 to 12 | 7.91 | < 1000 | same maximal anti-cancer efficacy as TasQ | 80 +/− 15% | at least 5 fold | lack of induction | 10 | – | – | – | – | – | – | –
COc1cccc2c1c(O)c(C(=O)N(C)c1ccc(C(F)(F)F)cc1)c(=O)n2C [TasQ, Tasquinimod] | – | – | – | – | – | 5000 | – | 87 +/− 11% | – | – | – | 44 | > 1 | 20 | > 2 | ≥ 5 | > 50 | 1000
